Experimental data reported in patent US10392368B2, “Pyrazolo and triazolo bicyclic compounds as JAK kinase inhibitors” (THERAVANCE BIOPHARMA R&D IP, LLC, priority 2017, dated 2019).
Like-named read-outs stand apart in the source and are kept apart here.

How the values were obtained:
[1] = system: IL-2 stimulated pSTAT5 in Tall-1 T cells; assay: Cellular JAK3 potency assay: inhibition of IL-2 stimulated pSTAT5 in Tall-1 T cells; assay type: cell-based, human; details: for IC50: Homo sapiens, read-out: Tall-1 (pIC50) (converted)
How it was run: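 In human Tall-1 T cells, IL-2 (300 ng/ml final, 30 min) drives STAT5 phosphorylation after a 1 h compound pretreatment. Lysates are assayed for pSTAT5 by AlphaLisa, and IC50 derived from signal versus concentration is expressed as pIC50.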

JAK1 = biological target: T1, JAK1 (Homo sapiens, UniProt P23458); assay: Biochemical JAK1 kinase assay (LanthaScreen); details: for Ki: read-out: JAK 1 (pKi) (converted)
T1 construct: GST; purchased Life Technologies
How it was run: (§1)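 Compounds were preincubated with the GST-tagged kinase and GFP-labelled STAT1 peptide for one hour before ATP initiated a one-hour reaction at ambient temperature. Phosphorylation was quantified by TR-FRET with a Tb-labelled pTyr701 antibody. Ki values were derived from IC50 using Cheng-Prusoff.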

JAK2 = biological target: T2, JAK2 (Homo sapiens, UniProt O60674); assay: Biochemical JAK2 kinase assay (LanthaScreen); details: for Ki: read-out: JAK 2 (pKi) (converted)
T2 construct: GST; purchased Life Technologies
How it was run: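 GST-tagged recombinant JAK2 pre-incubated 1 h at ambient temperature with compound and GFP-STAT1 peptide in HEPES pH 7.5/MgCl2 buffer, then ATP added for a 1 h reaction with 1% DMSO. TR-FRET read after EDTA and Tb-anti-pSTAT1 (pTyr701) addition; IC50 from 4-parameter fit, converted to pKi by Cheng-Prusoff.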

JAK3 = biological target: T3, JAK3 (Homo sapiens, UniProt P52333); assay: Biochemical JAK3 kinase assay (LanthaScreen); set-up: GST; purchased Life Technologies; details: for Ki: read-out: JAK 3 (pKi) (converted)
T3 sequence (P52333 1-1124): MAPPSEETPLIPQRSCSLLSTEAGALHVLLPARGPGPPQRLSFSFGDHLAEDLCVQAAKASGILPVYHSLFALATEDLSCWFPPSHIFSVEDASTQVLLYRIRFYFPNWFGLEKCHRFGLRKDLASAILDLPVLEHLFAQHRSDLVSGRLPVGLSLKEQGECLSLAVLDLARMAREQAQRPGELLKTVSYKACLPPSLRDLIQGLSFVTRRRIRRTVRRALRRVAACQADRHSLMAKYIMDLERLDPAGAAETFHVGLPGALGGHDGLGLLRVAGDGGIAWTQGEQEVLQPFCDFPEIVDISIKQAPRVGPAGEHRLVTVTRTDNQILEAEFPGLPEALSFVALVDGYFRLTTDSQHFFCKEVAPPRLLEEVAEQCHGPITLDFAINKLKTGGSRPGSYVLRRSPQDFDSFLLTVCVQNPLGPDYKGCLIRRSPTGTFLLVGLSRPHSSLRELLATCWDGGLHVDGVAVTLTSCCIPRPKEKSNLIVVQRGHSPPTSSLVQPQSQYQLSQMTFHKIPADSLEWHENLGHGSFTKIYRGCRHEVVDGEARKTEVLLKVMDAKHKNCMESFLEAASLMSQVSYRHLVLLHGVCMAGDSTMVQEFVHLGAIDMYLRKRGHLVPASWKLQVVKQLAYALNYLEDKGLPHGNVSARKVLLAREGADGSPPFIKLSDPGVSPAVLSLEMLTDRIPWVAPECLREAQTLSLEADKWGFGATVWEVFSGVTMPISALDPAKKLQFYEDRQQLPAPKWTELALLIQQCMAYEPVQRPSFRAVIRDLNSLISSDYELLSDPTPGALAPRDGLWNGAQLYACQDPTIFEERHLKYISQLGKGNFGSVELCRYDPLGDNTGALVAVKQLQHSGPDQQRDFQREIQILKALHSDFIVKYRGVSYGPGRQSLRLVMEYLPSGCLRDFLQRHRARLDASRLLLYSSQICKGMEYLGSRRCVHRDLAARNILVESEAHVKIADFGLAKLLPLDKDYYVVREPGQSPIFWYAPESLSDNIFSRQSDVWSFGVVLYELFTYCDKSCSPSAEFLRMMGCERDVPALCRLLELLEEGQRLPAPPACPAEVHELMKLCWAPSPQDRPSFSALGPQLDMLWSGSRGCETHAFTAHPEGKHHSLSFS
How it was run: as §1

Tyk2 = biological target: T4, Tyk2 (Homo sapiens, UniProt P29597); assay: Biochemical Tyk2 kinase assay (LanthaScreen); details: for Ki: read-out: Tyk 2 (pKi) (converted)
T4 construct: GST; purchased Life Technologies
How it was run: as §1

[2] = IL-2 stimulated pSTAT5 in Tall-1 T cells
[3] = selectivity: difference of pKi JAK3 and pKi JAK1
[4] = TALL-1, IL-2 stimulated pSTAT5 in Tall-1 T cells
[5] = selectivity JAK3 over JAK1, difference of pKi
[6] = IL-2 stimulated pSTAT5, Tall-1 T cells

T1 sequence (P23458 whole entry): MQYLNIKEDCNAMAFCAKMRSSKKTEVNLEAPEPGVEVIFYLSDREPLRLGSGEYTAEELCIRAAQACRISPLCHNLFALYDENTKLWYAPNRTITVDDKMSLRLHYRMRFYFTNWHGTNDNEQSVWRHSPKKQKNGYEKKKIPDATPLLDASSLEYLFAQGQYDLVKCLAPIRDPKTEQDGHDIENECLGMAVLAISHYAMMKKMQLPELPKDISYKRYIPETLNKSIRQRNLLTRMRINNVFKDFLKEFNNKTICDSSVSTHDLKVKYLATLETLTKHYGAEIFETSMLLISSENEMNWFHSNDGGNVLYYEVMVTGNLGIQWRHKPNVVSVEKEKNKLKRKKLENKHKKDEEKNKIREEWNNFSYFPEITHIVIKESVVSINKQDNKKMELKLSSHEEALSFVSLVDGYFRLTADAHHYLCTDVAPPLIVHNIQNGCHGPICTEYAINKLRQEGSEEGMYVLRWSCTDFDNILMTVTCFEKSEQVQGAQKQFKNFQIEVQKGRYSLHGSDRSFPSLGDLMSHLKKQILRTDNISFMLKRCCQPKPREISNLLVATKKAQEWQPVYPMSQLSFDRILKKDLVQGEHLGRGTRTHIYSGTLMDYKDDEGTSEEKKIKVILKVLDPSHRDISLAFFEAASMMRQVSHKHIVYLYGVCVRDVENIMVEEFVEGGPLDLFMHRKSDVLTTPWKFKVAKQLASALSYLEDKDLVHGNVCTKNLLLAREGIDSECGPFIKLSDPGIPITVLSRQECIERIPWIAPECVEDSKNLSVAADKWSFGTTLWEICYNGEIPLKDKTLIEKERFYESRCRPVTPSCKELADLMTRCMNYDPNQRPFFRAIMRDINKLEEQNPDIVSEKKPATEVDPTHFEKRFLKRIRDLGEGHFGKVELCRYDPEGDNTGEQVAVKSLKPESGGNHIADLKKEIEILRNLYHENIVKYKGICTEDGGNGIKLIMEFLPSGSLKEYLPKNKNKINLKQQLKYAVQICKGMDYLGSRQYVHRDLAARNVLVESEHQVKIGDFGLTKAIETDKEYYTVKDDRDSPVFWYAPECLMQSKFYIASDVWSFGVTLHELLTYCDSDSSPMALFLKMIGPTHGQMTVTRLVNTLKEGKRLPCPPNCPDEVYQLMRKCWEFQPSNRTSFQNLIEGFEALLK
T4 sequence (P29597 whole entry): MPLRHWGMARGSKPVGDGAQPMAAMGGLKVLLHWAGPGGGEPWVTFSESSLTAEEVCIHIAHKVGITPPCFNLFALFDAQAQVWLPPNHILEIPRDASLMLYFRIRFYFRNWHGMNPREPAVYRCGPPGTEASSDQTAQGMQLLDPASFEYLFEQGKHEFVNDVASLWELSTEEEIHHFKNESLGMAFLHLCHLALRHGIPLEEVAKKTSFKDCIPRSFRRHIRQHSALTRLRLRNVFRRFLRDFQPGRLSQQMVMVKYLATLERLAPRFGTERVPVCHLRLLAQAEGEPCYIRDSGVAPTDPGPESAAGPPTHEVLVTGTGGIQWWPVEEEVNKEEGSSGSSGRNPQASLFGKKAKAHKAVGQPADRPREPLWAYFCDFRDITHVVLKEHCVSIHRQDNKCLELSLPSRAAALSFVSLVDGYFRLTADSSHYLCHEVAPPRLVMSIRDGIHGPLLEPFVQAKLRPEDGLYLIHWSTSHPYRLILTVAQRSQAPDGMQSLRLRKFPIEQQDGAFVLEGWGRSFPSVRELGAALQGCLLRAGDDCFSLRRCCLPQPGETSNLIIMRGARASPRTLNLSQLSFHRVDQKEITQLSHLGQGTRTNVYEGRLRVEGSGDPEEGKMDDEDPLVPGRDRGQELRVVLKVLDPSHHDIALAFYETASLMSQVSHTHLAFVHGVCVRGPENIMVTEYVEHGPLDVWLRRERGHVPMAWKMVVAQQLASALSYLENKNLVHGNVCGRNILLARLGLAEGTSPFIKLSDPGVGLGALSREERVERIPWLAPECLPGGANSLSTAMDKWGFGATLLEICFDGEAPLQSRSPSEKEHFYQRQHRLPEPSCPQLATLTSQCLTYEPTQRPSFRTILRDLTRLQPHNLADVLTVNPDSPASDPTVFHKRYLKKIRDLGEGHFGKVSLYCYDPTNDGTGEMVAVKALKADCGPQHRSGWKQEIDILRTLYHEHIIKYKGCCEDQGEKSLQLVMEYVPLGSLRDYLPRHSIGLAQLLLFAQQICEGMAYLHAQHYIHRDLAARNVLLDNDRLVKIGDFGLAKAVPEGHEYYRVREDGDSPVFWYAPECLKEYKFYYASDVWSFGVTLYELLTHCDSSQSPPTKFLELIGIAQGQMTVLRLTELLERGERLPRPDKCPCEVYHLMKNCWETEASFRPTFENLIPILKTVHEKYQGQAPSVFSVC
T2 sequence (O60674 whole entry): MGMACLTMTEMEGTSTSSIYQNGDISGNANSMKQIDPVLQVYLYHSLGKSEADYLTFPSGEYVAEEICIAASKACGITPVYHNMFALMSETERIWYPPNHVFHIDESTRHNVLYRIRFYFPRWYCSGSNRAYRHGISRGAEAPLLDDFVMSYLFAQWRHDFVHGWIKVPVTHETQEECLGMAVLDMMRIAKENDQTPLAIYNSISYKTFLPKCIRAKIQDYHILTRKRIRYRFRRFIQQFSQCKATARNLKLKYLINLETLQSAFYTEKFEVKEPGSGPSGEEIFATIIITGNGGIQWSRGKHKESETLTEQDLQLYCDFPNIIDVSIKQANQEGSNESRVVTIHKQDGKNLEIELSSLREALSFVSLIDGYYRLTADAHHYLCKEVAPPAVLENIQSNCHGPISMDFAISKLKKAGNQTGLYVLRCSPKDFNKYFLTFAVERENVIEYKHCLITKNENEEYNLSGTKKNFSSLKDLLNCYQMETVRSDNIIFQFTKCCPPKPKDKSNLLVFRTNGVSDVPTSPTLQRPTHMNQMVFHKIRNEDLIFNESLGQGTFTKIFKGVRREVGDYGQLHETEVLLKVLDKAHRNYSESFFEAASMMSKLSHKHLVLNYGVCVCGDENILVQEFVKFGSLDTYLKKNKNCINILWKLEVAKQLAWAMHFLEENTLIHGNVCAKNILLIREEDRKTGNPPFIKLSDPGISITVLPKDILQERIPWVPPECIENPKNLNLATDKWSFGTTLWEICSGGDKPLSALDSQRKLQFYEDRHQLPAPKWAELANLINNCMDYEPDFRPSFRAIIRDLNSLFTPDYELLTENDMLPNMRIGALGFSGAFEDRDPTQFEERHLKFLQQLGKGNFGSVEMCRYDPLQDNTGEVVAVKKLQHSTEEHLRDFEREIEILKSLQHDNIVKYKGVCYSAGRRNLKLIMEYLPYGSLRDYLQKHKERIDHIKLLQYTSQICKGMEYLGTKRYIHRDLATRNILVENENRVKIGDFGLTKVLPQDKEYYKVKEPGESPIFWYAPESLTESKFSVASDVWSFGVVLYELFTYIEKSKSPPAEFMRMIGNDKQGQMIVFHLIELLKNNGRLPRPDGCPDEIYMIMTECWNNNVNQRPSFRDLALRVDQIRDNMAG

Structure (SMILES)	Tall-1 (pIC50) [1, 2]	JAK 1 (pKi) (JAK1)	JAK 2 (pKi) (JAK2)	JAK 3 (pKi) (JAK3)	JAK3 (pKi)-JAK1 (pKi) (JAK3; [3])	Tyk 2 (pKi) (Tyk2)	IC50 [1, 4] [nM]	Ki (JAK1) [nM]	Ki (JAK2) [nM]	Ki (JAK3) [nM]	Ki (Tyk2) [nM]	IC50 ([1]; TALL-1, IL-2 stimulated pSTAT5, Tall-1 T cells) [nM]	JAK3 (pKi)-JAK1 (pKi) (JAK3; [5])	Tall-1 (pIC50) [1, 6]
C=CC(=O)N1CC(COc2cc(-c3ccc(O)cc3)cc3[nH]ncc23)(OC)C1 [Compound 3-33]	B (a pIC50 value between 6.7 (included) and 7.5 (IC50 between 200 nM and 32 nM))	E (a pKi value of 7 or below (Ki of 100 nM or above))	E (a pKi value of 7 or below (Ki of 100 nM or above))	B (a pKi value between 9 and 10 (Ki between 1 nM and 0.1 nM))	B (a value of 2.3 to 3)	E (a pKi value of 7 or below (Ki of 100 nM or above))								
CN(C)C/C=C/C(=O)N1CC(C#N)(COc2cc(-c3ccc(O)cc3)cc3[nH]ncc23)C1 [Compound 3-19]	B (a pIC50 value between 6.7 (included) and 7.5 (IC50 between 200 nM and 32 nM))	E (a pKi value of 7 or below (Ki of 100 nM or above))	E (a pKi value of 7 or below (Ki of 100 nM or above))	B (a pKi value between 9 and 10 (Ki between 1 nM and 0.1 nM))	A (a value of 3 or above)	E (a pKi value of 7 or below (Ki of 100 nM or above))								
C=C(CN(C)C)C(=O)N1CC(COc2cc(-c3ccc(O)cc3)nc3[nH]ncc23)C1 [Compound 3-79]					A (a value of 3 or above)		31.6 to 200	> 100	> 100	0.1 to 1	> 100			
C=CC(=O)N1CCS(=O)(=O)C(C(=O)Nc2cc(-c3ccc(O)cc3)cc3[nH]ncc23)C1 (stereo not drawn) [Compound 12-45]								> 100	> 100	< 0.1	> 100	200 to 1000	A (a value of 3 or above)	
C=CC(=O)N1CC[C@H](Sc2cc(-c3ccc(O)cc3)cc3[nH]ncc23)C1 [Compound 12, (S)-1-(3-((6-(4-hydroxyphenyl)-1H-indazol-4-yl)thio)pyrrolidin-1-yl)prop-2-en-1-one]					B (a value of 2.3 to 3)		31.6 to 200	> 100	> 100	0.1 to 1	> 100			
C=CC(=O)N1CC[C@H](COc2nc(-c3ccc(O)c(Cl)c3)nc3[nH]ncc23)C1 [Compound 2-11]	B (a pIC50 value between 6.7 (included) and 7.5 (IC50 between 200 nM and 32 nM))	E (a pKi value of 7 or below (Ki of 100 nM or above))	E (a pKi value of 7 or below (Ki of 100 nM or above))	B (a pKi value between 9 and 10 (Ki between 1 nM and 0.1 nM))	A (a value of 3 or above)	E (a pKi value of 7 or below (Ki of 100 nM or above))								
C=CC(=O)N1CC[C@H](Oc2nc(-c3ccc(O)cc3)cc3[nH]nc(C)c23)C1 [Compound 1-34]					A (a value of 3 or above)		< 31.6	> 100	10 to 100	0.1 to 1	> 100			
CN(C)C/C=C/C(=O)N1CC(F)(COc2nc(-c3ccc(O)c(F)c3)nc3[nH]ncc23)C1 [Compound 3-51]	C (a pIC50 value between 6 and 6.7 (IC50 between 1 μM and 200 nM))	E (a pKi value of 7 or below (Ki of 100 nM or above))	E (a pKi value of 7 or below (Ki of 100 nM or above))	B (a pKi value between 9 and 10 (Ki between 1 nM and 0.1 nM))	A (a value of 3 or above)	E (a pKi value of 7 or below (Ki of 100 nM or above))								
CN(C)C/C=C/C(=O)N1CC(F)(COc2nc(-c3ccc(O)cc3)cc3[nH]ncc23)C1 [Compound 3-44]	A (a pIC50 value≥7.5 (IC50≤32 nM))	D (a pKi value between 7 and 8 (Ki between 100 nM and 10 nM))	D (a pKi value between 7 and 8 (Ki between 100 nM and 10 nM))	B (a pKi value between 9 and 10 (Ki between 1 nM and 0.1 nM))	B (a value of 2.3 to 3)	E (a pKi value of 7 or below (Ki of 100 nM or above))								
C=CC(=O)N1CC(C)(COc2nc(-c3ccc(O)cc3)cc3[nH]ncc23)C1 [Compound 3-56]					A (a value of 3 or above)		< 31.6	> 100	10 to 100	< 0.1	> 100			
C=CC(=O)N1CC[C@H](COc2cc(-c3ccc(O)c(Cl)c3)cc3[nH]ncc23)C1 [Compound 2-3]	B (a pIC50 value between 6.7 (included) and 7.5 (IC50 between 200 nM and 32 nM))	E (a pKi value of 7 or below (Ki of 100 nM or above))	D (a pKi value between 7 and 8 (Ki between 100 nM and 10 nM))	B (a pKi value between 9 and 10 (Ki between 1 nM and 0.1 nM))	A (a value of 3 or above)	E (a pKi value of 7 or below (Ki of 100 nM or above))								
CN(C)C/C=C/C(=O)N1CC(CN(C)c2cc(-c3ccc(O)c(Cl)c3)cc3[nH]ncc23)C1 [Compound 4-4]	B (a pIC50 value between 6.7 (included) and 7.5 (IC50 between 200 nM and 32 nM))	E (a pKi value of 7 or below (Ki of 100 nM or above))	E (a pKi value of 7 or below (Ki of 100 nM or above))	A (a pKi value≥10 (Ki≤0.1 nM))	A (a value of 3 or above)	E (a pKi value of 7 or below (Ki of 100 nM or above))								
C=CC(=O)N1CC(OCc2cc(-c3ccc(O)c(F)c3)cc3[nH]ncc23)C1 [Compound 16-3]		E (a pKi value of 7 or below (Ki of 100 nM or above))	E (a pKi value of 7 or below (Ki of 100 nM or above))	B (a pKi value between 9 and 10 (Ki between 1 nM and 0.1 nM))		E (a pKi value of 7 or below (Ki of 100 nM or above))							A (a value of 3 or above)	A (a pIC50 value≥7.5 (IC50≤32 nM))
CN(C)C/C=C/C(=O)N1CC(CN(C)c2cc(-c3ccc(O)cc3)cc3[nH]ncc23)C1 [Compound 11, (E)-4-(dimethylamino)-1-(3-(((6-(4-hydroxyphenyl)-1H-indazol-4-yl)(methyl)amino)methyl)azetidin-1-yl)but-2-en-1-one]					A (a value of 3 or above)		31.6 to 200	> 100	> 100	0.1 to 1	> 100			
C=CC(=O)N1CC(OCc2cc(-c3ccc(O)c(Cl)c3)cc3[nH]ncc23)C1 [Compound 16-2]		E (a pKi value of 7 or below (Ki of 100 nM or above))	E (a pKi value of 7 or below (Ki of 100 nM or above))	A (a pKi value≥10 (Ki≤0.1 nM))		E (a pKi value of 7 or below (Ki of 100 nM or above))							A (a value of 3 or above)	A (a pIC50 value≥7.5 (IC50≤32 nM))
